Test results reported in publication PMC10360995, “Discovery of 3-((3-amino-1H-indazol-4-yl)ethynyl)-N-(4-((4-ethylpiperazin-1-yl)methyl)-3-(trifluoromethyl)phenyl)benzamide (AKE-72), a potent Pan-BCR-ABL inhibitor including the T315I gatekeeper resistant mutant” (Journal of Enzyme Inhibition and Medicinal Chemistry, 2023).
Read-outs that look alike come from different tables or passages of the source.

Assays:
K-562 [1] = test system: K-562; set-up: method as in PMID 32961435; conditions: cited from earlier work
HL-60(TB) [2] = experiment: cells; conditions: Homo sapiens
BCR-ABL^WT = BCR-ABL^WT (Homo sapiens, UniProt P00519); conditions: cited from earlier work
BCR-ABL^WT, sequence (P00519 whole entry): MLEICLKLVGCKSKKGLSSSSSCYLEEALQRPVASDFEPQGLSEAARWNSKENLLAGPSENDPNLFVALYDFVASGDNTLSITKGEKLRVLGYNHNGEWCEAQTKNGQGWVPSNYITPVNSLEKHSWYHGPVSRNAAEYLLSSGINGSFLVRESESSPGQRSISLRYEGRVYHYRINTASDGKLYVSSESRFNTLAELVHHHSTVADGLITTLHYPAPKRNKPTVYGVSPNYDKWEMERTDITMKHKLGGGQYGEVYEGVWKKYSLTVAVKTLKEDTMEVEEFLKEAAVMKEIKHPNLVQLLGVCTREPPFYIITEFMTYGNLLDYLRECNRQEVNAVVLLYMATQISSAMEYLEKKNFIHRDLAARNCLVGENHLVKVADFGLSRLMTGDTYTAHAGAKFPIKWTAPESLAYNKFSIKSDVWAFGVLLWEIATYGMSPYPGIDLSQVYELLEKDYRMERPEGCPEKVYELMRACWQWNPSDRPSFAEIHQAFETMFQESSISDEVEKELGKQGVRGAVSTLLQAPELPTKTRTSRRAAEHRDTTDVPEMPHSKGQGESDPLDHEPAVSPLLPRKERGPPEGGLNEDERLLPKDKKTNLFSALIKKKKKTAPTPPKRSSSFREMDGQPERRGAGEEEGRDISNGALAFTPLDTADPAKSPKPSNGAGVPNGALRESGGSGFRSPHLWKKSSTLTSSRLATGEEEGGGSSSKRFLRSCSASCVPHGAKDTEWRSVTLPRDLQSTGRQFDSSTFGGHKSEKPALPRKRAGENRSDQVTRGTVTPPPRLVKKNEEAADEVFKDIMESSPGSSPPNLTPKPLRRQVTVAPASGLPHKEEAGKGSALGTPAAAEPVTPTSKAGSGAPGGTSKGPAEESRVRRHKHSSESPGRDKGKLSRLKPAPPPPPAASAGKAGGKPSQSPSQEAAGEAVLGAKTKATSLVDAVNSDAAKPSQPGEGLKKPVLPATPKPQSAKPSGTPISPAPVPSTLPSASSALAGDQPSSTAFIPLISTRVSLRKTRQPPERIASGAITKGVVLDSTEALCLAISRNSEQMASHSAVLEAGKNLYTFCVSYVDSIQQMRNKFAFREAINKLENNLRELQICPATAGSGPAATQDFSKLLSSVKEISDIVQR

HL-60(TB) [3] = test system: HL-60(TB)
MOLT-4 = experiment: NCI SRB anti-leukemic assay
CCRF-CEM = experiment: NCI SRB anti-leukemic assay
SR = experiment: NCI SRB anti-leukemic assay
RPMI-8226 = experiment: NCI SRB anti-leukemic assay
K-562 [4] = experiment: NCI SRB anti-leukemic assay
CML = conditions: cited from earlier work
Ba/F3 mouse pro-B cells = experiment: Cellular proliferation assay; format: cell-based; conditions: BaF3, read-out: GI50 Ba/F3 (mouse pro-B cell)
Source text: We also tested AKE-72 against BCR-ABL-positive and BCR-ABL-negative cell lines.
1.8. Cytochrome P450 Assay
The binding site was defined based

## Nc1n[nH]c2cccc(C#Cc3cccc(NC(=O)c4ccc(N5CCOCC5)c(C(F)(F)F)c4)c3)c12 [I, reference compound]
K-562 [1]
  GI50: < 10 nM
HL-60(TB) [2]; HL-60, read-out: GI50 HL-60(TB)
  GI50: 1400 nM
HL-60(TB) [2]; HL-60, read-out: LC50 (half-maximal lethal concentration) HL-60(TB)
  CC50: > 100000 nM
BCR-ABL^WT
  IC50: 4.6 ± 0.6 nM
HL-60(TB) [3]; five-dose assay
  TGI (total growth inhibition) HL-60(TB): 10500 nM
HL-60(TB) [3]; single dose 10 µM
  GI % HL-60(TB): 99.01%
MOLT-4; Homo sapiens, MOLT-4, read-out: GI50 MOLT-4
  GI50: 1310 nM
MOLT-4; Homo sapiens, MOLT-4, read-out: LC50 (half-maximal lethal concentration) MOLT-4
  CC50: > 100000 nM
MOLT-4; five-dose assay
  TGI (total growth inhibition) MOLT-4: 5710 nM
MOLT-4; single dose 10 µM
  GI % MOLT-4: 92.33%
CCRF-CEM; Homo sapiens, CCRF-CEM, read-out: GI50 CCRF-CEM
  GI50: 1360 nM
CCRF-CEM; Homo sapiens, CCRF-CEM, read-out: LC50 (half-maximal lethal concentration) CCRF-CEM
  CC50: > 100000 nM
CCRF-CEM; five-dose assay
  TGI (total growth inhibition) CCRF-CEM: 6580 nM
CCRF-CEM; single dose 10 µM
  GI % CCRF-CEM: 9.49%
SR; Homo sapiens, SR, read-out: GI50 SR
  GI50: 2400 nM
SR; Homo sapiens, SR, read-out: LC50 (half-maximal lethal concentration) SR
  CC50: > 100000 nM
SR; five-dose assay
  TGI (total growth inhibition) SR: >100000 nM
SR; single dose 10 µM
  GI % SR: 87.42%
RPMI-8226; Homo sapiens, RPMI-8226, read-out: GI50 RPMI-8226
  GI50: 1980 nM
RPMI-8226; Homo sapiens, RPMI-8226, read-out: LC50 (half-maximal lethal concentration) RPMI-8226
  CC50: > 100000 nM
RPMI-8226; five-dose assay
  TGI (total growth inhibition) RPMI-8226: 6500 nM
RPMI-8226; single dose 10 µM
  GI % RPMI-8226: L (lethal effect (% GI > 100))
K-562 [4]; Homo sapiens, K562, read-out: GI50 K-562
  GI50: < 10 nM
K-562 [4]; Homo sapiens, K562, read-out: LC50 (half-maximal lethal concentration) K-562
  CC50: > 100000 nM
K-562 [4]; five-dose assay
  TGI (total growth inhibition) K-562: 13500 nM
  TGI K-562: 13500 nM
K-562 [4]; single dose 10 µM
  GI % K-562: 97.96%

## Cc1ccc(NC(=O)c2ccc(CN3CCN(C)CC3)cc2)cc1Nc1nccc(-c2cccnc2)n1 [Imatinib]
CML; CML, after 10 years
  long-term success rate: 83.3%
CML; patients diagnosed with CML
  overall 5-year survival rate: 89%

## Cc1ccc(C(=O)Nc2ccc(CN3CCN(C)CC3)c(C(F)(F)F)c2)cc1C#Cc1cnc2cccnn12 [Ponatinib, reference compound]
Ba/F3 mouse pro-B cells
  GI50: 708 ± 37 nM
